Test results published in the SangsterLogP compilation.

Experiment: method code SF, from DOI: 10.1080/00021369.1987.10868331

Row | Compound | logP
1 | CCCNc1nc(NCCC)nc(SC(F)F)n1 | 4.45
2 | CCNc1nc(NCC)nc(SC(F)F)n1 | 3.28
3 | CC(C)Nc1nc(NC(C)C)nc(SC(F)F)n1 | 4.25
4 | CCC(C)Nc1nc(NC(C)C)nc(SC(F)F)n1 (stereo unspecified) | 4.55
5 | CCNc1nc(NC)nc(SC(F)F)n1 | 2.68
6 | CCCCCNc1nc(NCC)nc(SC(F)F)n1 | 4.71
7 | CNc1nc(NC)nc(SC(F)F)n1 | 2.31
8 | CCCNc1nc(NCC)nc(SC(F)F)n1 | 3.8
9 | CCNc1nc(NC(C)(C)C)nc(SC(F)F)n1 | 4.57
10 | CNc1nc(N)nc(SC(F)F)n1 | 1.75
11 | CNc1nc(NC(C)(C)C)nc(SC(F)F)n1 | 3.91
12 | CCCCNc1nc(NC(C)C)nc(SC(F)F)n1 | 4.75
13 | CCCCNc1nc(NCC)nc(SC(F)F)n1 | 4.51
14 | CCCCCCNc1nc(NCC)nc(SC(F)F)n1 | 5.53
15 | CCNc1nc(N)nc(SC(F)F)n1 | 2.29

More lines, now with the values ahead:

Row | logP | Compound
16 | 4.23 | CCCNc1nc(NC(C)C)nc(SC(F)F)n1
17 | 3.7 | CCCCNc1nc(NC)nc(SC(F)F)n1
18 | 3.7 | CCNc1nc(NC(C)C)nc(SC(F)F)n1
19 | 4.7 | CC(C)Nc1nc(NC(C)(C)C)nc(SC(F)F)n1
20 | 6.61 | CCCCCCCCNc1nc(NCC)nc(SC(F)F)n1
21 | 3.28 | CCCNc1nc(NC)nc(SC(F)F)n1
22 | 4.23 | CCNc1nc(NC(C)CC)nc(SC(F)F)n1 (stereo unspecified)
23 | 3.69 | CCC(C)Nc1nc(NC)nc(SC(F)F)n1 (stereo unspecified)
24 | 1.21 | Nc1nc(N)nc(SC(F)F)n1
25 | 4.42 | CCCCCNc1nc(NC)nc(SC(F)F)n1
26 | 3.27 | CNc1nc(NC(C)C)nc(SC(F)F)n1
